The record followed here is article PMC4634243 (Influenza and Other Respiratory Viruses, 2012).

Data set [1] deals with RNP combinations of PB2, PB1, PA, and NP from influenza virus strain 178. It counts as cell-based, influenza virus strain 178 (H5N1), 293T cells.
For data set [2], the system named is H5N1 influenza virus strain 178. The data set is classed as cell-based, H5N1 influenza virus strain 178 in MDCK cells. As to conditions: 12–72 h.
For data set [3], the system named is influenza virus type A, A/Chicken/GuangDong/178/2004 (H5N1, 178).
For data set [4], the system named is H5N1 influenza virus strain 178. In words: organism not typed. The data set is classed as cell-based, H5N1 influenza virus strain 178 in MDCK cells.
Data set [5] deals with purified N1‐type NA (Influenza A virus, UniProt P03468). It counts as biochemical.
Sequence of purified N1‐type NA (P03468 whole entry): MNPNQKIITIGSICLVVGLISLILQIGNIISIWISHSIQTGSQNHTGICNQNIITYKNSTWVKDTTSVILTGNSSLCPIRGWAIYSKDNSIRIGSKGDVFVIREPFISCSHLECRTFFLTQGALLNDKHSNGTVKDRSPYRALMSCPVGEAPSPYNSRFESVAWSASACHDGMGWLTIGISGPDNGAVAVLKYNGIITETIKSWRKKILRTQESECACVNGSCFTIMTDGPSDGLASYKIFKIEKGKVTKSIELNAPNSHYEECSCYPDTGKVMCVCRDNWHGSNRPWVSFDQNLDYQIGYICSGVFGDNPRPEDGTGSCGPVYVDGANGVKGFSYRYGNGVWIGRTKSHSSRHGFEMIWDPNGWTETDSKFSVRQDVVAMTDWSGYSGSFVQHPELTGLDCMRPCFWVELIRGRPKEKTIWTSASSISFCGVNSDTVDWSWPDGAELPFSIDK
Data set [6] has as its system H5N1‐HIV pseudoviruses (HA of A/Qinghai/59/2005(H5N1), NA of A/Thailand/Kan353/2004). It counts as cell-based, H5N1 pseudovirus in MDCK cells.
In data set [7] the test system is nuclear‐to‐cytoplasmic export of the RNP complex (NP). It counts as cell-based, 178 H5N1 HPAIV in MDCK cells.
Data set [8] relates to MDCK cells.

For the molecule `O[C@H]1[C@H]2c3cc4c(cc3CN3CCC(=C[C@@H]1O)[C@H]23)OCO4` [AA1, lycorine], the “luciferase activities (RNP activity) compared with no treatment” value in data set [1] was “slightly higher luciferase activities”. Further, the “HA titer, cultured with DMEM‐containing compounds (protocol 4, 5, 7)” value in data set [2] is “no HA titer was detected”. The “SI (CC50/EC50)” value in data set [3] is recorded as over 45. For the same molecule, in data set [4], the “inhibitory activity when added at time intervals 5 min–1 h, 15 min–1 h, 30 min–1 h, 1–2 h, 2–4 h, or 4–8 h” value is listed as “not significant” and the “inhibitory effect against virus, time of addition” value is reported as “observed after a single round of replication (12 h p.i.)”. In addition, the inhibition at 52 µM in data set [4] (read-out: virus inhibited (HA titer)) is about 50%. In addition, the “inhibitory activity on the N1‐type neuraminidase” value in data set [5] is on record as “did not exhibit significant inhibitory activity”. Moreover, the “prevention of binding and internalizing of H5N1 pseudovirions into MDCK cells” value in data set [6] was “neither AA1 nor AA3 could prevent”. In addition, in data set [7], the “location of NP protein at 48 h p.i. (multi‐round replication)” value is listed as “NP protein was exported to cytoplasm”; the “migration of the RNP complex from the nucleus to cytoplasm, early and middle stages of the replication cycle (0–6 h)” value is “affected migration of the RNP complex from the nucleus to cytoplasm”; the “time for which antiviral activity (block in vRNP nuclear export) was retained” value is “up to 24 h”. Moreover, the CC50 in data set [8] is 20·9 ± 0·07 μM.
Turning to `O=c1cc(N2CCOCC2)oc2c(-c3ccccc3)cccc12` [LY294002, reference compound], the “distribution of NP protein at 12, 24, and 48 h p.i.” value in data set [7] is given as “the protein was still in the nucleus”.
